System: chicken roundworm [鶏回虫(^5earidia galli)]
Test: Anthelmintic test: single oral dose to chickens infected with chicken roundworm; worm expulsion rate over 7 days
Type: in vivo, chicken roundworm (^5earidia galli)
Details: for worm expulsion rate (mean): single oral dose (gelatin capsule), n = 3, 7 days, untreated control 0%

[C-]#[N+]C(=Cc1ccc(O)cc1)C(=Cc1ccc(OC)cc1)[N+]#[C-] [キサントシリンXモノメチルエーテル, 1(p−ヒドロキシフェニル)−2、3−ジイソシフノー4−(p−メトキシフェニル)−ブタ−1,3−ツエン]
worm expulsion rate (mean) (5 mg/kg): 8% | worm expulsion rate (mean) (10 mg/kg): 69.7% | worm expulsion rate (mean) (20 mg/kg, completely expelled): 100% | anthelmintic effect (doses of 10 mg/kg to 20 mg/kg, single oral dose): 確実な駆虫効果が確認された | time after dosing within which most worms were expelled (most of the medicated groups, single oral dose 5-20 mg/kg): ≤ 2 days
